Reference: US10882882B2, “Post fermented tea-derived kaempferol-based compound” (AMOREPACIFIC CORPORATION, priority 2016, dated 2021)

How the values were obtained:
[1] = tested on: healthy adult subjects; test: Human repeated insult patch test (HRIPT), cumulative skin irritation; format: in vivo; conditions: for Number of subjects showed ± reactivity, 1st time / Number of subjects showed + reactivity, 1st time / Number of subjects showed ++ reactivity, 1st time: 1st patch; for Number of subjects showed ± reactivity, 1st time / Number of subjects showed ± reactivity, 2nd time / Number of subjects showed ± reactivity, 3rd time / Number of subjects showed ± reactivity, 4th time / Number of subjects showed ± reactivity, 5th time / Number of subjects showed ± reactivity, 6th time / Number of subjects showed ± reactivity, 7th time / Number of subjects showed ± reactivity, 8th time / Number of subjects showed ± reactivity, 9th time: 1st of 3 lines (±); for Number of subjects showed + reactivity, 1st time / Number of subjects showed + reactivity, 2nd time / Number of subjects showed + reactivity, 3rd time / Number of subjects showed + reactivity, 4th time / Number of subjects showed + reactivity, 5th time / Number of subjects showed + reactivity, 6th time / Number of subjects showed + reactivity, 7th time / Number of subjects showed + reactivity, 8th time / Number of subjects showed + reactivity, 9th time: 2nd of 3 lines (+); for Number of subjects showed ++ reactivity, 1st time / Number of subjects showed ++ reactivity, 2nd time / Number of subjects showed ++ reactivity, 3rd time / Number of subjects showed ++ reactivity, 4th time / Number of subjects showed ++ reactivity, 5th time / Number of subjects showed ++ reactivity, 6th time / Number of subjects showed ++ reactivity, 7th time / Number of subjects showed ++ reactivity, 8th time / Number of subjects showed ++ reactivity, 9th time: 3rd of 3 lines (++); for Number of subjects showed ± reactivity, 2nd time / Number of subjects showed + reactivity, 2nd time / Number of subjects showed ++ reactivity, 2nd time: 2nd patch; for Number of subjects showed ± reactivity, 3rd time / Number of subjects showed + reactivity, 3rd time / Number of subjects showed ++ reactivity, 3rd time: 3rd patch; for Number of subjects showed ± reactivity, 4th time / Number of subjects showed + reactivity, 4th time / Number of subjects showed ++ reactivity, 4th time: 4th patch; for Number of subjects showed ± reactivity, 5th time / Number of subjects showed + reactivity, 5th time / Number of subjects showed ++ reactivity, 5th time: 5th patch; for Number of subjects showed ± reactivity, 6th time / Number of subjects showed + reactivity, 6th time / Number of subjects showed ++ reactivity, 6th time: 6th patch; for Number of subjects showed ± reactivity, 7th time / Number of subjects showed + reactivity, 7th time / Number of subjects showed ++ reactivity, 7th time: 7th patch; for Number of subjects showed ± reactivity, 8th time / Number of subjects showed + reactivity, 8th time / Number of subjects showed ++ reactivity, 8th time: 8th patch; for Average reactivity: 9 patches over three weeks, safe when less than 3; for Number of subjects showed ± reactivity, 9th time / Number of subjects showed + reactivity, 9th time / Number of subjects showed ++ reactivity, 9th time: 9th patch
Method: Human repeated insult patch tests (HRIPT) were conducted to determine the cumulative skin irritation by kaempferol3-O-[2-O″-(E)-p-coumaroyl][beta-D-glucopyranosyl-(1→3)-O-alpha-L-rhamnopyranosyl-(1→6)-O-beta-D-glucopyranoside] and to calculate the concentration range in which kaempferol3-O-[2-O″-(E)-p-coumaroyl][beta-D-glucopyranosyl-(1→3)-O-alpha-L-rhamnopyranosyl-(1→6)-O-beta-D-glucopyranoside] can be used on the skin.
Specifically, 15 healthy adult subjects were randomly selected, the test compositions (compositions for skin containing an emulsifier, a stabilizer, purified water, and the like in addition to the compound) containing the compound at 0.5 wt %, 1 wt %, and 3 wt % were dropped by 20 μl per chamber (IQ chamber, Epitest Ltd, Finland), and the patch was applied to the right side of the upper back of the subject and then replaced with new one after 24 hours. The skin reaction was examined before and after the patch test while the patch test was conducted three times a week and thus nine times for three weeks in total in this manner, the skin reaction was observed until the 48th hour after removal of the final patch, and the average reactivity was determined.
The skin reaction was judged according to the criteria of the International Contact Dermatitis Research Group (ICDRG). In the above table, “Novel substance 33” denotes kaempferol3-O-[2-O″-(E)-p-coumaroyl][beta-D-glucopyranosyl-(1→3)-O-alpha-L-rhamnopyranosyl-(1→6)-O-beta-D-glucopyranoside].

[2] = target: T1, beta amyloid (Aβ1-42) (Homo sapiens, UniProt P05067); test: Inhibition of beta amyloid aggregation, fluorescence analysis (ThioflavinT assay); format: biochemical
T1 construct: beta amyloid (Aβ1-42, AnaSpec Inc, USA); purchased AnaSpec Inc, USA
T1 sequence (P05067 672-713 limits assumed): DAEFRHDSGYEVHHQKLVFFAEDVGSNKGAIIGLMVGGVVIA
Method: The effect of kaempferol3-O-[2-O″-(E)-p-coumaroyl][beta-D-glucopyranosyl-(1→3)-O-alpha-L-rhamnopyranosyl-(1→6)-O-beta-D-glucopyranoside] on inhibition of beta amyloid aggregation was confirmed by the fluorescence analysis (ThioflavinT assay). Specifically, beta amyloid (Aβ1-42, AnaSpec Inc, USA) was obtained and used at a concentration of 0.1 mg/ml and stored at −80° C. before use. Morin (20 μM), phenol red (20 μM), and kaempferol3-O-[2-O″-(E)-p-coumaroyl][beta-D-glucopyranosyl-(1→3)-O-alpha-L-rhamnopyranosyl-(1→6)-O-beta-D-glucopyranoside] (1 mg/ml) were respectively diluted with DMSO so as to be adjusted to the concentrations. In order to specify the degree of inhibition of Aβ1-42 aggregation, each of the compounds prepared at the above concentrations was diluted with 50 μL of 0.01 M sodium phosphate buffer solution to have a concentration of 10 μM, then 40 μL of 0.1 mg/ml of Aβ1-42 was added thereto, and then 10 μl of 2 mM thioflavinT was added thereto, and fluorescence was measured using a fluorescence spectrometer (RF-5300PC, SHIMADZU CORPORATION, Japan) at 37° C. for 150 minutes at intervals of 5 minutes. In the above table, “RFU” denotes the relative fluorescence unit, and “Increased RFU” denotes the amount of aggregated beta amyloid, and “Increased RFU (% of Pos.Cont.)” denotes the percentage value of the amount of aggregated beta amyloid with respect to that of the positive control group. “Novel substance 33” denotes kaempferol3-O-[2-O″-(E)-p-coumaroyl][beta-D-glucopyranosyl-(1→3)-O-alpha-L-rhamnopyranosyl-(1→6)-O-beta-D-glucopyranoside].

CC1OC(OCC2OC(Oc3c(-c4ccc(O)cc4)oc4cc(O)cc(O)c4c3=O)C(OC(=O)/C=C/c3ccc(O)cc3)C(O)C2O)C(O)C(OC2OC(CO)C(O)C(O)C2O)C1O [Novel substance 33, kaempferol3-O-[2-O″-(E)-p-coumaroyl][beta-D-glucopyranosyl-(1→3)-O-alpha-L-rhamnopyranosyl-(1→6)-O-beta-D-glucopyranoside]]
Number of subjects showed ± reactivity, 1st time ([1]; 0.5 wt %): 0 persons | Number of subjects showed + reactivity, 1st time ([1]; 0.5 wt %): 0 persons | Number of subjects showed ++ reactivity, 1st time ([1]; 0.5 wt %): 0 persons | Number of subjects showed ± reactivity, 2nd time ([1]; 0.5 wt %): 0 persons | Number of subjects showed + reactivity, 2nd time ([1]; 0.5 wt %): 0 persons | Number of subjects showed ++ reactivity, 2nd time ([1]; 0.5 wt %): 0 persons | Number of subjects showed ± reactivity, 3rd time ([1]; 0.5 wt %): 0 persons | Number of subjects showed + reactivity, 3rd time ([1]; 0.5 wt %): 0 persons | Number of subjects showed ++ reactivity, 3rd time ([1]; 0.5 wt %): 0 persons | Number of subjects showed ± reactivity, 4th time ([1]; 0.5 wt %): 0 persons | Number of subjects showed + reactivity, 4th time ([1]; 0.5 wt %): 0 persons | Number of subjects showed ++ reactivity, 4th time ([1]; 0.5 wt %): 0 persons | Number of subjects showed ± reactivity, 5th time ([1]; 0.5 wt %): 0 persons | Number of subjects showed + reactivity, 5th time ([1]; 0.5 wt %): 0 persons | Number of subjects showed ++ reactivity, 5th time ([1]; 0.5 wt %): 0 persons | Number of subjects showed ± reactivity, 6th time ([1]; 0.5 wt %): 0 persons | Number of subjects showed + reactivity, 6th time ([1]; 0.5 wt %): 0 persons | Number of subjects showed ++ reactivity, 6th time ([1]; 0.5 wt %): 0 persons | Number of subjects showed ± reactivity, 7th time ([1]; 0.5 wt %): 0 persons | Number of subjects showed + reactivity, 7th time ([1]; 0.5 wt %): 0 persons | Number of subjects showed ++ reactivity, 7th time ([1]; 0.5 wt %): 0 persons | Number of subjects showed ± reactivity, 8th time ([1]; 0.5 wt %): 0 persons | Number of subjects showed + reactivity, 8th time ([1]; 0.5 wt %): 0 persons | Number of subjects showed ++ reactivity, 8th time ([1]; 0.5 wt %): 0 persons | Average reactivity ([1]; 0.5 wt %): 0 | Number of subjects showed ± reactivity, 9th time ([1]; 0.5 wt %): 0 persons | Number of subjects showed + reactivity, 9th time ([1]; 0.5 wt %): 0 persons | Number of subjects showed ++ reactivity, 9th time ([1]; 0.5 wt %): 0 persons | Number of subjects showed ± reactivity, 1st time ([1]; 1 wt %): 0 persons | Number of subjects showed + reactivity, 1st time ([1]; 1 wt %): 0 persons | Number of subjects showed ++ reactivity, 1st time ([1]; 1 wt %): 0 persons | Number of subjects showed ± reactivity, 2nd time ([1]; 1 wt %): 0 persons | Number of subjects showed + reactivity, 2nd time ([1]; 1 wt %): 0 persons | Number of subjects showed ++ reactivity, 2nd time ([1]; 1 wt %): 0 persons | Number of subjects showed ± reactivity, 3rd time ([1]; 1 wt %): 0 persons | Number of subjects showed + reactivity, 3rd time ([1]; 1 wt %): 0 persons | Number of subjects showed ++ reactivity, 3rd time ([1]; 1 wt %): 0 persons | Number of subjects showed ± reactivity, 4th time ([1]; 1 wt %): 0 persons | Number of subjects showed + reactivity, 4th time ([1]; 1 wt %): 0 persons | Number of subjects showed ++ reactivity, 4th time ([1]; 1 wt %): 0 persons | Number of subjects showed ± reactivity, 5th time ([1]; 1 wt %): 0 persons | Number of subjects showed + reactivity, 5th time ([1]; 1 wt %): 0 persons | Number of subjects showed ++ reactivity, 5th time ([1]; 1 wt %): 0 persons | Number of subjects showed ± reactivity, 6th time ([1]; 1 wt %): 0 persons | Number of subjects showed + reactivity, 6th time ([1]; 1 wt %): 0 persons | Number of subjects showed ++ reactivity, 6th time ([1]; 1 wt %): 0 persons | Number of subjects showed ± reactivity, 7th time ([1]; 1 wt %): 0 persons | Number of subjects showed + reactivity, 7th time ([1]; 1 wt %): 0 persons | Number of subjects showed ++ reactivity, 7th time ([1]; 1 wt %): 0 persons | Number of subjects showed ± reactivity, 8th time ([1]; 1 wt %): 0 persons | Number of subjects showed + reactivity, 8th time ([1]; 1 wt %): 0 persons | Number of subjects showed ++ reactivity, 8th time ([1]; 1 wt %): 0 persons | Average reactivity ([1]; 1 wt %): 0 | Number of subjects showed ± reactivity, 9th time ([1]; 1 wt %): 0 persons | Number of subjects showed + reactivity, 9th time ([1]; 1 wt %): 0 persons | Number of subjects showed ++ reactivity, 9th time ([1]; 1 wt %): 0 persons | Number of subjects showed ± reactivity, 1st time ([1]; 3 wt %): 0 persons | Number of subjects showed + reactivity, 1st time ([1]; 3 wt %): 0 persons | Number of subjects showed ++ reactivity, 1st time ([1]; 3 wt %): 0 persons | Number of subjects showed ± reactivity, 2nd time ([1]; 3 wt %): 0 persons | Number of subjects showed + reactivity, 2nd time ([1]; 3 wt %): 0 persons | Number of subjects showed ++ reactivity, 2nd time ([1]; 3 wt %): 0 persons | Number of subjects showed ± reactivity, 3rd time ([1]; 3 wt %): 0 persons | Number of subjects showed + reactivity, 3rd time ([1]; 3 wt %): 0 persons | Number of subjects showed ++ reactivity, 3rd time ([1]; 3 wt %): 0 persons | Number of subjects showed ± reactivity, 4th time ([1]; 3 wt %): 0 persons | Number of subjects showed + reactivity, 4th time ([1]; 3 wt %): 0 persons | Number of subjects showed ++ reactivity, 4th time ([1]; 3 wt %): 0 persons | Number of subjects showed ± reactivity, 5th time ([1]; 3 wt %): 0 persons | Number of subjects showed + reactivity, 5th time ([1]; 3 wt %): 0 persons | Number of subjects showed ++ reactivity, 5th time ([1]; 3 wt %): 0 persons | Number of subjects showed ± reactivity, 6th time ([1]; 3 wt %): 0 persons | Number of subjects showed + reactivity, 6th time ([1]; 3 wt %): 0 persons | Number of subjects showed ++ reactivity, 6th time ([1]; 3 wt %): 0 persons | Number of subjects showed ± reactivity, 7th time ([1]; 3 wt %): 0 persons | Number of subjects showed + reactivity, 7th time ([1]; 3 wt %): 0 persons | Number of subjects showed ++ reactivity, 7th time ([1]; 3 wt %): 0 persons | Number of subjects showed ± reactivity, 8th time ([1]; 3 wt %): 0 persons | Number of subjects showed + reactivity, 8th time ([1]; 3 wt %): 0 persons | Number of subjects showed ++ reactivity, 8th time ([1]; 3 wt %): 0 persons | Average reactivity ([1]; 3 wt %): 0 | Number of subjects showed ± reactivity, 9th time ([1]; 3 wt %): 0 persons | Number of subjects showed + reactivity, 9th time ([1]; 3 wt %): 0 persons | Number of subjects showed ++ reactivity, 9th time ([1]; 3 wt %): 0 persons | cumulative skin irritation ([1]; HRIPT, 0.5 to 3 wt %): without cumulative skin irritation | Increased RFU (% of Pos. Cont.) ([2]; compound 10 μM, Aβ1-42 0.1 mg/ml, 37° C., 150 minutes, Pos. Cont. (beta amyloid only) = 100): 77.0% | Increased RFU (amount of aggregated beta amyloid) ([2]; compound 10 μM, Aβ1-42 0.1 mg/ml, thioflavinT, 37° C., 150 minutes): 11235 RFU | inhibition of beta amyloid aggregation as compared with the positive control group ([2]; positive control (only beta amyloid, no compound) taken as 100%): 23.0%
